# Results: patent publication US20240327364A1, “THERAPEUTIC TARGETING OF GPR68 TO INDUCE FERROPTOSIS” (University Of Maryland, Baltimore, priority 2023, published 2024)
# Experiments:
# Daoy = test: Cell Titer-Glo viability, Medulloblastoma; type: cell-based; details: 72 hours
# Description: OGM2 kills wide variety of cancer cell types. Cell sensitivity can be classified in to Very Sensitive (LC50<2 μM), Sensitive (LC50=2 to 10 μM), Mildly Sensitive (LC50>10 μM), and Refractory (no killing at 10 μM). The listed established cell were incubated with OGM2 at 2 μM or 10 μM for 72 hours under standard cell culture conditions, and relative cell number was assessed using Cell Titer-Glo Luminescent Cell Viability Assay (Promega™) following the manufacturer's instructions. Luminescence was determined using a Cytation 5 reader and Gen5 software package (BioTek™).
# Cancer cells, which are very sensitive to killing by OGM2 (LCs <2 μM), with reported mRNA expression of GPR68 and the related proton sensing receptor GPR4. LC50's (concentrations causing 50% lethality) were determined using CellTiter-Glo (Promega™, G7570). Cells were plated in 12-well plates (CELLTREAT Scientific Products, 229112) in 1 ml of DMEM with high glucose, GlutaMAX, HEPES, or RPMI 1640 with Penicillin-Streptomycin (ThermoFisher™, 10564029, 11875119 and 15140122) and 10% FBS. Cells were incubated overnight at 37° C. in 5% CO2. Then 1 mL of fresh media was added with DMSO, OGM, or positive control (Erastin; APExBIO Technology, LLC, B1524) and cells incubated for 3 days. On the third day, all media was removed, cells were rinsed with 1×PBS, PBS was removed, and 200 μL of 1× Passive Lysis Buffer (Promega™, E1941) was added to each well. […]. […] Plates were briefly spun down and read on a GloMax-Multi Detection System (Promega™).
# The cells listed in the tables above were incubated with OGM2 at 2 μM or 10 μM for 72 hours under standard cell culture conditions, and relative cell number was assessed using Cell Titer-Glo Luminescent Cell Viability Assay (Promega™) following the manufacturer's instructions. Luminescence was determined using a Cytation 5 reader and Gen5 software package (BioTek™). […] The consensus normalized expression value (“nTPM”=normalize transcript per million) was calculated as the maximum nTPM value for each gene in the two data sources.
# [1] = biological target: T1, 336X-GFP (GPR68 truncation variant) (Homo sapiens, UniProt Q15743); test: SRE-luciferase assay, 336X-GFP transfected HEK293T cells; type: cell-based; details: OGM 10 μM
# T1 construct: while the full-length (GPR68-GFP) internalizes in response to stimulation; expressed in transfected cells; host or cells: HEK293T
# Description: 12-well plates of cells were transfected with 1 μg DNA using Lipofectamine 3000 with sre:luciferase and either the vector backbone, GFP, GPR68, GPR68-GFP, GPR4, or 336X-GFP. After 3 days, these cells were then lysed, and cell extracts were subjected to Steady-Glo luciferase assay (Promega™) according to the manufacturer's instructions. The results were normalized to cell titer, as determined using Cell Titer-Glo luminescence assay (Promega™). For some procedure, the cells were treated in serum-free medium, and were lysed on the third day.
# Loss of internalization can indicate loss of activity or loss of the ability to internalize through beta-arrestin. […] Compared to GFP controls, GPR68-GFP and 336X-GFP transfected cells had higher levels of activity. (n=3 biological replicates done in triplicate). Furthermore, the activity of the truncation variant was still inhibited by OGM. […]
# CCK2 = biological target: T2, CCK2 (Homo sapiens, UniProt P32239); test: GPCR Profiler; type: cell-based
# T2 construct: host or cells: Chem-1 cells with promiscuous Gα15
# CDC2L2 = biological target: T3, CDC2L2 (Homo sapiens, UniProt Q9UQ88); test: KinomeScan; type: binding; details: read-out: % Control
# T3 construct: purchased DiscoveRx (KinomeScan service)
# NDR2 = biological target: T4, NDR2 (Homo sapiens, UniProt Q9Y2H1); test: KinomeScan; type: binding; details: read-out: % Control
# T4 construct: purchased DiscoveRx
# IRAK3 = biological target: T5, IRAK3 (Homo sapiens, UniProt Q9Y616); test: KinomeScan; type: binding; details: read-out: % Control
# T5 construct: purchased DiscoveRx (Fremont, CA)
# GRK7 = biological target: T6, GRK7 (Homo sapiens, UniProt Q8WTQ7); test: KinomeScan; type: binding; details: read-out: % Control
# T6 construct: purchased DiscoveRx (Fremont, CA)
# MYO3B = biological target: T7, MYO3B (Homo sapiens, UniProt Q8WXR4); test: KinomeScan; type: binding; details: read-out: % Control
# T7 construct: purchased DiscoveRx
# ERK3 = biological target: T8, ERK3 (Homo sapiens, UniProt Q16659); test: KinomeScan; type: binding; details: read-out: % Control
# T8 construct: purchased DiscoveRx (Fremont, CA)
# sst3 = biological target: T9, sst3 (Homo sapiens, UniProt P32745); test: GPCR Profiler; type: cell-based
# T9 construct: host or cells: Chem-1 cells with Gα15
# KIT(V559D, T670I) = biological target: T10, KIT(V559D, T670I) (Homo sapiens, UniProt P10721, T670I/V559D); test: KinomeScan; type: binding; details: read-out: % Control
# T10 construct: purchased DiscoveRx
# FGFR3(G697C) = biological target: T11, FGFR3(G697C) (Homo sapiens, UniProt P22607, G697C); test: KinomeScan; type: binding; details: read-out: % Control
# T11 construct: purchased DiscoveRx (Fremont, CA)
# DRAK2 = biological target: T12, DRAK2 (Homo sapiens, UniProt O94768); test: KinomeScan; type: binding; details: read-out: % Control
# T12 construct: purchased DiscoveRx (Fremont, CA), KinomeScan service
# BRSK1 = biological target: T13, BRSK1 (Homo sapiens, UniProt Q8TDC3); test: KinomeScan; type: binding; details: read-out: % Control
# T13 construct: purchased DiscoveRx (KinomeScan service)
# EGFR(E746-A750del) = biological target: T14, EGFR(E746-A750del) (Homo sapiens, UniProt P00533, DEL746-750); test: KinomeScan; type: binding; details: read-out: % Control
# T14 construct: purchased DiscoveRx (Fremont, CA), KinomeScan service
# FLT3(N841I) = biological target: T15, FLT3(N841I) (Homo sapiens, UniProt P36888, N841I); test: KinomeScan; type: binding; details: read-out: % Control
# T15 construct: purchased DiscoveRx (Fremont, CA)
# MARK3 = biological target: T16, MARK3 (Homo sapiens, UniProt P27448); test: KinomeScan; type: binding; details: read-out: % Control
# T16 construct: purchased DiscoveRx (Fremont, CA)
# NK2 = biological target: T17, NK2 (Homo sapiens, UniProt P21452); test: GPCR Profiler; type: cell-based
# T17 construct: host or cells: Chem-1 cells expressing Gα15
# T17 sequence (P21452 whole entry): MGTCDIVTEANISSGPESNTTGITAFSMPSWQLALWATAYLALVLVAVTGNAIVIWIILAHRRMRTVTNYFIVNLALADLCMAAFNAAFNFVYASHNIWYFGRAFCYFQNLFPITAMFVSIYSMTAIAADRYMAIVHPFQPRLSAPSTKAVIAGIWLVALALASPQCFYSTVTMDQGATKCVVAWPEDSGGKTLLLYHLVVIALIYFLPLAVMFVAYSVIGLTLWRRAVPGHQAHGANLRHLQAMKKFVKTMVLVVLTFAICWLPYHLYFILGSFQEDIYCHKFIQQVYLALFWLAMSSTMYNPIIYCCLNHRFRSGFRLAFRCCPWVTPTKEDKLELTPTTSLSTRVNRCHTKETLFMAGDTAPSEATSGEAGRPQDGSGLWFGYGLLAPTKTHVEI
# T2 sequence (P32239 whole entry): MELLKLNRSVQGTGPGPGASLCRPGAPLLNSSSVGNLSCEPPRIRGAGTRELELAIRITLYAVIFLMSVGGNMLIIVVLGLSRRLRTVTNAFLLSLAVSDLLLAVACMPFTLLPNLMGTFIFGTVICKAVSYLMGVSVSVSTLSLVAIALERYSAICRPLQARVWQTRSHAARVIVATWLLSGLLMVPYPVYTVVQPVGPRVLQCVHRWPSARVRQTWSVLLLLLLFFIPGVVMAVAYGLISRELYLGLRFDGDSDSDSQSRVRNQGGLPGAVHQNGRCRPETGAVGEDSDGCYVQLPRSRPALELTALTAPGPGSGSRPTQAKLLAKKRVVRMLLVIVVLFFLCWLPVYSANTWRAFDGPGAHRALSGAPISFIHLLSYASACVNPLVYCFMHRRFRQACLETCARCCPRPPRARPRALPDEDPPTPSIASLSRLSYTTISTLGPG
# T9 sequence (P32745 whole entry, species assumed): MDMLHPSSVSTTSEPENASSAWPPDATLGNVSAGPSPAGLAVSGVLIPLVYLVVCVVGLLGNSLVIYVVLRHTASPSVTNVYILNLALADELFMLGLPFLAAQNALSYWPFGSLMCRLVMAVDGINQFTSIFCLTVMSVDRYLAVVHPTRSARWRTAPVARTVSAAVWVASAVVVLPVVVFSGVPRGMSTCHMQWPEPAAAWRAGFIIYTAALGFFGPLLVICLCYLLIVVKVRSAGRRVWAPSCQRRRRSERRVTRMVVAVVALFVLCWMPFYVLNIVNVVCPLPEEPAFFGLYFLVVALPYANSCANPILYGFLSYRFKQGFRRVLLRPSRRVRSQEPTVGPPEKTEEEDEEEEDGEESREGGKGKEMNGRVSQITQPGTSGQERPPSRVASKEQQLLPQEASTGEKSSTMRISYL
# T8 sequence (Q16659 whole entry): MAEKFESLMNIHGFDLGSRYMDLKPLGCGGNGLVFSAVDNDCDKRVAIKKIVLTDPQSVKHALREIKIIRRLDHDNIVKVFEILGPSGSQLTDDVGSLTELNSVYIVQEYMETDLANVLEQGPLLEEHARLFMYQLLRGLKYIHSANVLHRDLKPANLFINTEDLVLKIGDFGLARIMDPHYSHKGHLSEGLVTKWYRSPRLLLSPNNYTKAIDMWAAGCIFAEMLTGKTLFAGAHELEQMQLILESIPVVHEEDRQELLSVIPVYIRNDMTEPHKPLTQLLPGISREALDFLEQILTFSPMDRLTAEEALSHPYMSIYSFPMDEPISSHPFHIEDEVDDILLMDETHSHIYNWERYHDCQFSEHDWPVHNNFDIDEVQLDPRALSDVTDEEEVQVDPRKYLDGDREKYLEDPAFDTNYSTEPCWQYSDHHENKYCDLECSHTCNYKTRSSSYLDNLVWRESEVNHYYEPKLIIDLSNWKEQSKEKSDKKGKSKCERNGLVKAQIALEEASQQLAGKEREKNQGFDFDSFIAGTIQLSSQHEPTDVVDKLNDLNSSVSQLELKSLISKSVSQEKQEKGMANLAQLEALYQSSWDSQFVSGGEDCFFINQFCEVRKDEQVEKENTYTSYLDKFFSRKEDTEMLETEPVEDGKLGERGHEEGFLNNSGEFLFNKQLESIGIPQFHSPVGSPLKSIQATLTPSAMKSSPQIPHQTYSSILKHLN
# T5 sequence (Q9Y616 whole entry): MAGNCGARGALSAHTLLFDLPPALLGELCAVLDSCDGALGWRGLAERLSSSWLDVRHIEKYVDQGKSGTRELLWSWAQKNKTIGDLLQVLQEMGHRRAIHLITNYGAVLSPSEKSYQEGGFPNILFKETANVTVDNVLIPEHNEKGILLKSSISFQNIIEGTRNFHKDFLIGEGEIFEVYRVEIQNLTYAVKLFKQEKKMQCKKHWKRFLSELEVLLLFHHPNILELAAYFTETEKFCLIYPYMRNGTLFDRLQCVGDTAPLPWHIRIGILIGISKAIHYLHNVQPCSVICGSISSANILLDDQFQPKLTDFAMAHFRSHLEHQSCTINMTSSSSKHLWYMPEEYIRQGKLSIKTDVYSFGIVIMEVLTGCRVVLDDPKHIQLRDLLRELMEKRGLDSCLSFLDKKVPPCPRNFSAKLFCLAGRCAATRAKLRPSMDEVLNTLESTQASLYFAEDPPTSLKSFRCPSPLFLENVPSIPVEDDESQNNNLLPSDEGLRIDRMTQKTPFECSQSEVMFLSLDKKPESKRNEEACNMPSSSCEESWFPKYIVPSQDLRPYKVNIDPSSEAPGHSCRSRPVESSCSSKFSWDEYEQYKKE
# T11 sequence (P22607 23-806 G697C): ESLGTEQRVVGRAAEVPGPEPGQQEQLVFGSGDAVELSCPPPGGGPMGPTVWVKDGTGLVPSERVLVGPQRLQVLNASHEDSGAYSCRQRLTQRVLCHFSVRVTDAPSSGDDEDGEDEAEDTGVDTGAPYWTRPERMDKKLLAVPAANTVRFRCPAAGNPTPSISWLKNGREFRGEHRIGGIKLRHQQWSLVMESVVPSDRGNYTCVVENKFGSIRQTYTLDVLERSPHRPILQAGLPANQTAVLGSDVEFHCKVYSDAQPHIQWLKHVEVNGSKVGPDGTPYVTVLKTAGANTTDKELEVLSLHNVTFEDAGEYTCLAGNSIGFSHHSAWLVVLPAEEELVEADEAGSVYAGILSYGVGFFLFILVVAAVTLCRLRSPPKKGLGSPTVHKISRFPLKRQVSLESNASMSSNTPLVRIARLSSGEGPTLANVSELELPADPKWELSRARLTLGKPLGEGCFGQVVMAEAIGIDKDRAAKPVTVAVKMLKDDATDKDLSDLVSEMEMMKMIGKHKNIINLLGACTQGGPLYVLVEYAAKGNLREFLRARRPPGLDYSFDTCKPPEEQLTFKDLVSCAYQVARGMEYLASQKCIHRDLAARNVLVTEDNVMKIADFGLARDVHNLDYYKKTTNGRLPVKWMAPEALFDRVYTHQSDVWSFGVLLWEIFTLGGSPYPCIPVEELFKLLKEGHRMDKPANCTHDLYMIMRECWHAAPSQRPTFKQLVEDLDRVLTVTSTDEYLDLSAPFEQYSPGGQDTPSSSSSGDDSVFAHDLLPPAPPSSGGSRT
# T7 sequence (Q8WXR4 whole entry): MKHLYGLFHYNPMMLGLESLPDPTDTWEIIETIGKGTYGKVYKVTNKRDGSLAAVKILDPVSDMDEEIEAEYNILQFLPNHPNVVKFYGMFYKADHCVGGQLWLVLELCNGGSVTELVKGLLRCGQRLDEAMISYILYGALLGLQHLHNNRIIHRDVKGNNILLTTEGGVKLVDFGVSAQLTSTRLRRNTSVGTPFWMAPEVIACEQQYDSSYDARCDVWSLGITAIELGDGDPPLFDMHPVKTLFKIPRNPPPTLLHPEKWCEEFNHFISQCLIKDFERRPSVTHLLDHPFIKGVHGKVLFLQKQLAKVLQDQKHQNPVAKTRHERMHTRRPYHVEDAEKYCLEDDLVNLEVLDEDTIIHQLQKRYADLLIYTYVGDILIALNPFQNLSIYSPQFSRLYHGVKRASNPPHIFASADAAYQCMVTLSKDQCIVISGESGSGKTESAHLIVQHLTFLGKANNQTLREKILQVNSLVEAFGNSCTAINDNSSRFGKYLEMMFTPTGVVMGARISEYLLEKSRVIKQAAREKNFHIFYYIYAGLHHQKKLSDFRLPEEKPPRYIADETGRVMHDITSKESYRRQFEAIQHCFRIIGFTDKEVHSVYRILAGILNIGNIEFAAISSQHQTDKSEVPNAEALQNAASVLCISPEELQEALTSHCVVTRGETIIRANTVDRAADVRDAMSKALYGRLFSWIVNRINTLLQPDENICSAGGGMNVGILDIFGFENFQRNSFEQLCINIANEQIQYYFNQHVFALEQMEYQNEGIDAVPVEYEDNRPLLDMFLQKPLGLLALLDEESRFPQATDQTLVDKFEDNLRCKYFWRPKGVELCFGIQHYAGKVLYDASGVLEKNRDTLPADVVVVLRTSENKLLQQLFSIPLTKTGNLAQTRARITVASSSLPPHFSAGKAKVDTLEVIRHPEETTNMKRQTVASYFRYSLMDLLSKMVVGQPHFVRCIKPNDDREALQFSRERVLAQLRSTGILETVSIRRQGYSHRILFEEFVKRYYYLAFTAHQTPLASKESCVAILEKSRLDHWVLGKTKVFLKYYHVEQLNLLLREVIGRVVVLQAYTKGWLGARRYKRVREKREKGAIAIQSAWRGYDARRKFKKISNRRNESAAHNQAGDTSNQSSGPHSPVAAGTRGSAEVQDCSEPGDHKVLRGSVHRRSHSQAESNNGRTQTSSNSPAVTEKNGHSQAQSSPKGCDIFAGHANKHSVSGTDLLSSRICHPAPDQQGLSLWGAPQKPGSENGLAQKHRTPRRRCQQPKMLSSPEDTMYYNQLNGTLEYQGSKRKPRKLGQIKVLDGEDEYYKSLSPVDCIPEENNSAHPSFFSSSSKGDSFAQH
compound,measurement,setting,value
CCc1ccc2c(c1)C1(NN=C(c3ccccc3)S1)C(=O)N2 (centres unmarked) [OGM2],% Survival 2 μM OGM,Daoy,9.0%
same,% Survival 10 μM OGM,Daoy,10.5%
same,CC50,"Daoy; Homo sapiens, Daoy, read-out: LC50 (the source's name)",< 2 µM
same,SRE-luciferase activity,[1],reduced the level of luciferase activity
"CCc1ccc2c(c1)C1(NN=C(c3cccc4ccccc34)S1)C(=O)N2 (centres unmarked) [OGM1, 5-ethyl-5′-naphthalen-1-ylspiro[1H-indole-3,2′-3H-1,3,4-thiadiazole]-2-one]",Antagonism,CCK2; 10 uM,14.9
same,Agonism,CCK2; 12.5 uM,−0.4
same,remaining binding at 10 µM,CDC2L2,93%
same,remaining binding at 10 µM,NDR2,82%
same,remaining binding at 10 µM,IRAK3,97%
same,remaining binding at 10 µM,GRK7,73%
same,remaining binding at 10 µM,MYO3B,100%
same,remaining binding at 10 µM,ERK3,100%
same,Antagonism,sst3; 10 uM,0
same,Agonism,sst3; 12.5 uM,0
same,remaining binding at 10 µM,"KIT(V559D, T670I)",77%
same,remaining binding at 10 µM,FGFR3(G697C),99%
same,remaining binding at 10 µM,DRAK2,100%
same,remaining binding at 10 µM,BRSK1,100%
same,remaining binding at 10 µM,EGFR(E746-A750del),100%
same,remaining binding at 10 µM,FLT3(N841I),91%
same,remaining binding at 10 µM,MARK3,100%
same,Antagonism,NK2; 10 uM,1
same,Agonism,NK2; 12.5 uM,0
